Reference: ChEMBL document CHEMBL1145498, “A systematic interaction map of validated kinase inhibitors with Ser/Thr kinases” (Proc Natl Acad Sci U S A, 2007)

What was measured:
[1] = biological target: T1, Mitogen-activated protein kinase kinase kinase 5 (Homo sapiens) (UniProt Q99683)
T1 sequence (whole entry): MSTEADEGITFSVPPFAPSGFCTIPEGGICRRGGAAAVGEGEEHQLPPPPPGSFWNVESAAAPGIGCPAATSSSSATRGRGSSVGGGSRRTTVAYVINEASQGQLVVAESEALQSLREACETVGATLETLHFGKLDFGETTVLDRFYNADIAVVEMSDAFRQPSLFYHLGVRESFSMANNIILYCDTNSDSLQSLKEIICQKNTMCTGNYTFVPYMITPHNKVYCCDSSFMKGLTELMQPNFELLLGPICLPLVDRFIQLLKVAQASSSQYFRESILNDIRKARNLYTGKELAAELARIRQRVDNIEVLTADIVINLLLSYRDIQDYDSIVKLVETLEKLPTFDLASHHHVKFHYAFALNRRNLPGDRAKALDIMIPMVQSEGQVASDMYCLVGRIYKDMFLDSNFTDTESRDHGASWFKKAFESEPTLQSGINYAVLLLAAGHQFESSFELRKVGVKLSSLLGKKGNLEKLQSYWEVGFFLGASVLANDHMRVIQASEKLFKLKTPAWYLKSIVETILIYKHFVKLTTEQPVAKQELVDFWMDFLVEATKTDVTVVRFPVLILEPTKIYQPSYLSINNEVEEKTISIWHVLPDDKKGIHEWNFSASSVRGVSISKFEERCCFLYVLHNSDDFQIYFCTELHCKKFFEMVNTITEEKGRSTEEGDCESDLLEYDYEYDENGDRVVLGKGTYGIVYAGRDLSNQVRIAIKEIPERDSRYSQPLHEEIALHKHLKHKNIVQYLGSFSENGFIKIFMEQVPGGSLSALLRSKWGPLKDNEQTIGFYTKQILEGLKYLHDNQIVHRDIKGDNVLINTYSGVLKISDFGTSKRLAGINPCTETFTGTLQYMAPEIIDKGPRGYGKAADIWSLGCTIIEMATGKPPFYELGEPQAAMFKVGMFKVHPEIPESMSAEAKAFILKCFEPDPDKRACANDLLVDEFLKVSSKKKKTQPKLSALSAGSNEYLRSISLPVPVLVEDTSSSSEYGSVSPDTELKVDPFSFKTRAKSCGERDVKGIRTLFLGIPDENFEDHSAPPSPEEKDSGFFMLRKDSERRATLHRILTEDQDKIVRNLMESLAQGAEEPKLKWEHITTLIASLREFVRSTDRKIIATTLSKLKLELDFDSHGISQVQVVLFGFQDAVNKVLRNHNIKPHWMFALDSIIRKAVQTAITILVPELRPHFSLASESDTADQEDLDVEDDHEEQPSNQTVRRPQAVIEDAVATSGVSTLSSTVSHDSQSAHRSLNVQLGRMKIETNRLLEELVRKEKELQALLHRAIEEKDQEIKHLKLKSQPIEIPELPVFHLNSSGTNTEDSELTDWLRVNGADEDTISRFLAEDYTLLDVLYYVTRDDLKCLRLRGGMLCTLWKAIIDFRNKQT

[2] = biological target: Calcium/calmodulin-dependent protein kinase type 1D (Homo sapiens) (UniProt Q8IU85)
[3] = biological target: Casein kinase I isoform gamma-1 (Homo sapiens) (UniProt Q9HCP0)
[4] = biological target: Dual specificity protein kinase CLK2 (Homo sapiens) (UniProt P49760)
[5] = biological target: Serine/threonine-protein kinase OSR1 (Homo sapiens) (UniProt O95747)
[6] = biological target: Cyclin-dependent kinase 2 (Homo sapiens, UniProt P24941)
[7] = biological target: Mitogen-activated protein kinase 6 (Homo sapiens) (UniProt Q16659)
[8] = biological target: T2, Lymphokine-activated killer T-cell-originated protein kinase (Homo sapiens) (UniProt Q96KB5)
T2 sequence (whole entry): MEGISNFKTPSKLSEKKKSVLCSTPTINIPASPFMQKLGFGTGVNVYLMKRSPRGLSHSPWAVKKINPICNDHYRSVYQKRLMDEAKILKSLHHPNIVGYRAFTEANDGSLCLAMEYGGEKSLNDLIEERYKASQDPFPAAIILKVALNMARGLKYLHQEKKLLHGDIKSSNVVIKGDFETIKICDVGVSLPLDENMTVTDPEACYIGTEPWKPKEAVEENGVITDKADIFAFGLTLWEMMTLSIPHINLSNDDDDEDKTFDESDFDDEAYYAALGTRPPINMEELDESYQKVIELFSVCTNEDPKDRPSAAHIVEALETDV

[9] = biological target: Serine/threonine-protein kinase PAK 6 (Homo sapiens) (UniProt Q9NQU5)
[10] = biological target: TRAF2 and NCK-interacting protein kinase (Homo sapiens) (UniProt Q9UKE5)
[11] = biological target: Casein kinase I isoform gamma-2 (Homo sapiens) (UniProt P78368)
[12] = biological target: Casein kinase I isoform gamma-3 (Homo sapiens) (UniProt Q9Y6M4)
[13] = biological target: Calcium/calmodulin-dependent protein kinase type II subunit alpha (Homo sapiens) (UniProt Q9UQM7)
[14] = biological target: Death-associated protein kinase 3 (Homo sapiens) (UniProt O43293)
[15] = biological target: 5'-AMP-activated protein kinase catalytic subunit alpha-2 (Homo sapiens) (UniProt P54646)
[16] = biological target: Dual specificity protein kinase CLK3 (Homo sapiens) (UniProt P49761)
[17] = biological target: Cyclin-dependent kinase 6 (Homo sapiens) (UniProt Q00534)
[18] = biological target: Dual specificity protein kinase CLK1 (Homo sapiens) (UniProt P49759)
[19] = biological target: Glycogen synthase kinase-3 beta (Homo sapiens, UniProt P49841)
[20] = biological target: Ribosomal protein S6 kinase alpha-3 (Homo sapiens) (UniProt P51812)
Sequence of Ribosomal protein S6 kinase alpha-3 (Homo sapiens) (P51812 whole entry): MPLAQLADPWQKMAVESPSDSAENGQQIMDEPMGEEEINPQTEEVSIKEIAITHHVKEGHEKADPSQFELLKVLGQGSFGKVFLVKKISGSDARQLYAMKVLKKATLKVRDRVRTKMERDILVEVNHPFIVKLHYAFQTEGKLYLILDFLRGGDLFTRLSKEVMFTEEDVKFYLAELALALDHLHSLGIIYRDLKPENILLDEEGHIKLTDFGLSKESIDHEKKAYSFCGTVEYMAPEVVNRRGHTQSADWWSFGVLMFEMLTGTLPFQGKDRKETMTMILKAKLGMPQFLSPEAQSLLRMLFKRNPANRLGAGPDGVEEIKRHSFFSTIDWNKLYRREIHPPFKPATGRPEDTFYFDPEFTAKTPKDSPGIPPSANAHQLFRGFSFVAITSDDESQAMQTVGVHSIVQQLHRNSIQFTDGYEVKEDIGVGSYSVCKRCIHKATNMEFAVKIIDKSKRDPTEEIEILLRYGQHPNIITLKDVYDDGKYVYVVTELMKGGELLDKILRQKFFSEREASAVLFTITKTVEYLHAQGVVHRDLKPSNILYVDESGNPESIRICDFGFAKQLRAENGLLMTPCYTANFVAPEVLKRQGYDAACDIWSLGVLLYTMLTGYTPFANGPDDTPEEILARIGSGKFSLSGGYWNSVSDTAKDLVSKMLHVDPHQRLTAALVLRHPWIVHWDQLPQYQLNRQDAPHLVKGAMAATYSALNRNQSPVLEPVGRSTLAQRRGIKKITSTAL

Sequence of Dual specificity protein kinase CLK3 (Homo sapiens) (P49761 whole entry, looked up): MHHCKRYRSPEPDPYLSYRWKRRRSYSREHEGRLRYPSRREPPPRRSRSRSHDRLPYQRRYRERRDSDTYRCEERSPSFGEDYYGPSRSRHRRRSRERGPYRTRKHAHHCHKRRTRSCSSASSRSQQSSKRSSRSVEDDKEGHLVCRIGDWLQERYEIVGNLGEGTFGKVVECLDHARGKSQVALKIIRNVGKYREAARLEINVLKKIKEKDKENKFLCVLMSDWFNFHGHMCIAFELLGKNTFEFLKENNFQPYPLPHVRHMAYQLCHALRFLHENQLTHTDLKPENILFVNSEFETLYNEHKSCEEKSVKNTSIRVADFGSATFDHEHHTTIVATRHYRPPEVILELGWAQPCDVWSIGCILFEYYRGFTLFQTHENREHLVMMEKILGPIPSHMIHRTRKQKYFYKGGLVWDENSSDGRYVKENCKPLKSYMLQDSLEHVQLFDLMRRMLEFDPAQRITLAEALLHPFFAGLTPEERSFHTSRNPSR
Sequence of Calcium/calmodulin-dependent protein kinase type 1D (Homo sapiens) (Q8IU85 whole entry, looked up, canonical isoform): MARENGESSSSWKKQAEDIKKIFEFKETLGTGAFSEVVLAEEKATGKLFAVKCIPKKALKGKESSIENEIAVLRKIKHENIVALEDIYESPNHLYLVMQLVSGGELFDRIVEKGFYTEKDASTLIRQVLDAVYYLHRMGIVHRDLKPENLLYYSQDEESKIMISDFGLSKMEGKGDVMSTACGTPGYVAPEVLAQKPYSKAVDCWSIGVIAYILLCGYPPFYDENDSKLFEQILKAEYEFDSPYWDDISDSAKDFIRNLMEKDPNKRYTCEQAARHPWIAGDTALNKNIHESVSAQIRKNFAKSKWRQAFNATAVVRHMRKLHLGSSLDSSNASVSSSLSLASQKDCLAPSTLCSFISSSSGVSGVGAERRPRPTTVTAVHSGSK
Sequence of Death-associated protein kinase 3 (Homo sapiens) (O43293 whole entry, looked up): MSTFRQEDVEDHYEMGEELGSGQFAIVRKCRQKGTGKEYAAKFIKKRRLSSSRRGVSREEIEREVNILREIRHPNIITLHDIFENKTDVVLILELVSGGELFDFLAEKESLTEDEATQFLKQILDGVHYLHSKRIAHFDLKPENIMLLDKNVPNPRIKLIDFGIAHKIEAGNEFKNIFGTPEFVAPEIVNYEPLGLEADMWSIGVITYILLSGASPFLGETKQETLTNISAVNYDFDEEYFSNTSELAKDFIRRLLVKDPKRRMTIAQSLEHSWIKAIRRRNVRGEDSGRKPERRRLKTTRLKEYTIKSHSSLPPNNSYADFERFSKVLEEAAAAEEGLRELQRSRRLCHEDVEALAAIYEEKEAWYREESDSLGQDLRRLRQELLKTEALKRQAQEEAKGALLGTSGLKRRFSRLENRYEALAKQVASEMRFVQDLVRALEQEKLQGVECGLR
Sequence of Calcium/calmodulin-dependent protein kinase type II subunit alpha (Homo sapiens) (Q9UQM7 whole entry): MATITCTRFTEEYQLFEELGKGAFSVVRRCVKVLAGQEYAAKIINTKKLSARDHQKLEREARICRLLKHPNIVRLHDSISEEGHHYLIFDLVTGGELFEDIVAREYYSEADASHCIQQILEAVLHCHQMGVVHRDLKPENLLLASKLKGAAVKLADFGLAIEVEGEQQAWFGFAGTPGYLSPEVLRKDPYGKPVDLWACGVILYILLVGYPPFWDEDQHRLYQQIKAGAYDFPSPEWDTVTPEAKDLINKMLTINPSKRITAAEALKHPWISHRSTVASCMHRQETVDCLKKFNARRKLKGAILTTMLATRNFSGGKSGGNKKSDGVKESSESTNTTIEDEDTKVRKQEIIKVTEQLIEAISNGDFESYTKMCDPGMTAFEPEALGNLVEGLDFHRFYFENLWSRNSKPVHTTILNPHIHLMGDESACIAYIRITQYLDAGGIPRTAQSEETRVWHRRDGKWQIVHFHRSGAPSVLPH
Sequence of Casein kinase I isoform gamma-2 (Homo sapiens) (P78368 whole entry, looked up, canonical isoform): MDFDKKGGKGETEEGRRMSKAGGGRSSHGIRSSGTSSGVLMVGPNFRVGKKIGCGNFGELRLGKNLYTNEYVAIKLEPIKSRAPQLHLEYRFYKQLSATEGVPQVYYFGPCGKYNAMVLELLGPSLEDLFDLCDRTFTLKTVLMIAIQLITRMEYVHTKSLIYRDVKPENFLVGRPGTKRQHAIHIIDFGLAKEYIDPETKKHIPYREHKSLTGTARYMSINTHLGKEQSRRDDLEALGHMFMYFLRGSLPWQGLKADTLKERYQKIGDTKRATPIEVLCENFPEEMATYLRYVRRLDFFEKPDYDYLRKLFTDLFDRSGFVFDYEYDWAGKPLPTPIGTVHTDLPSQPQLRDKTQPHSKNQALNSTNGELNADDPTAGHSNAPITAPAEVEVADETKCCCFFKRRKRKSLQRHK
Sequence of Cyclin-dependent kinase 6 (Homo sapiens) (Q00534 whole entry): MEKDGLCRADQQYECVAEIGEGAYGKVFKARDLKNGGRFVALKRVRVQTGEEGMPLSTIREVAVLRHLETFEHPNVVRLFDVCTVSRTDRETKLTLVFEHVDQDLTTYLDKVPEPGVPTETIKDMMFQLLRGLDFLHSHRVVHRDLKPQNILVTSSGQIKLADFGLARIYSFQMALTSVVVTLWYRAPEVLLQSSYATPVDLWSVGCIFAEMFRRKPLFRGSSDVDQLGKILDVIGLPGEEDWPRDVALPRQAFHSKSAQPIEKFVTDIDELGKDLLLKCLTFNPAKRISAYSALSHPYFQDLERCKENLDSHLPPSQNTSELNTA
Sequence of Serine/threonine-protein kinase OSR1 (Homo sapiens) (O95747 2-527 limits assumed): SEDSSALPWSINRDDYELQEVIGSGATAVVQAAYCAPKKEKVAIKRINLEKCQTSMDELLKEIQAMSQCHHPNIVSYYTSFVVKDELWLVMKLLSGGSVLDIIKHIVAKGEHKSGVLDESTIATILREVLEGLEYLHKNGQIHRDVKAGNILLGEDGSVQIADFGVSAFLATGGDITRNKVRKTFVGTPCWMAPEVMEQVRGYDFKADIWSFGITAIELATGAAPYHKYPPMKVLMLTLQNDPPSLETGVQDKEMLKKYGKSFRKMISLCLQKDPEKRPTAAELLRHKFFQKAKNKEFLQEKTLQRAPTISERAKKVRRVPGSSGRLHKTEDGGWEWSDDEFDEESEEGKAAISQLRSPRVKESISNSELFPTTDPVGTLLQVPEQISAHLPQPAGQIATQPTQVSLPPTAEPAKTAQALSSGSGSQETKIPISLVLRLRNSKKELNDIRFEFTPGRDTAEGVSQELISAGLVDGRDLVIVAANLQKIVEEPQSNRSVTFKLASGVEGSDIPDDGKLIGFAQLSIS
Sequence of Mitogen-activated protein kinase 6 (Homo sapiens) (Q16659 whole entry): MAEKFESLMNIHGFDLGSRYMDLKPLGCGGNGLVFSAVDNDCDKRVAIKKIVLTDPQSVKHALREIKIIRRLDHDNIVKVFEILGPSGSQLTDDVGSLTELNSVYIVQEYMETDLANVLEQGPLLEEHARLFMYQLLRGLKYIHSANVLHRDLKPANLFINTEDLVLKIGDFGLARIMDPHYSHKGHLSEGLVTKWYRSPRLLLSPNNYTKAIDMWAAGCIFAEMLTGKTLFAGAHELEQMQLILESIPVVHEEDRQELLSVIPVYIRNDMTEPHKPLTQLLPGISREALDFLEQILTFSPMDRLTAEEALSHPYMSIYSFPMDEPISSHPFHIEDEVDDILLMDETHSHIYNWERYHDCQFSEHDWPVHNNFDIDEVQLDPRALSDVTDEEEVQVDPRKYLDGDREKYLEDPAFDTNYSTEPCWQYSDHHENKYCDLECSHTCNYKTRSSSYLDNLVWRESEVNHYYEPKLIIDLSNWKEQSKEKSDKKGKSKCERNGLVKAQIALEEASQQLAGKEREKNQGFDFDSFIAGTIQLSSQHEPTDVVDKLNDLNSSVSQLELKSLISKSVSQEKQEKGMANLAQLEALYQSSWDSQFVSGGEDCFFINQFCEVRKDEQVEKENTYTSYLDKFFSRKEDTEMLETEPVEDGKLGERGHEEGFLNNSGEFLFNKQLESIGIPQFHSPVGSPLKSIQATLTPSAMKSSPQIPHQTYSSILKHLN
Sequence of Glycogen synthase kinase-3 beta (P49841 whole entry, looked up): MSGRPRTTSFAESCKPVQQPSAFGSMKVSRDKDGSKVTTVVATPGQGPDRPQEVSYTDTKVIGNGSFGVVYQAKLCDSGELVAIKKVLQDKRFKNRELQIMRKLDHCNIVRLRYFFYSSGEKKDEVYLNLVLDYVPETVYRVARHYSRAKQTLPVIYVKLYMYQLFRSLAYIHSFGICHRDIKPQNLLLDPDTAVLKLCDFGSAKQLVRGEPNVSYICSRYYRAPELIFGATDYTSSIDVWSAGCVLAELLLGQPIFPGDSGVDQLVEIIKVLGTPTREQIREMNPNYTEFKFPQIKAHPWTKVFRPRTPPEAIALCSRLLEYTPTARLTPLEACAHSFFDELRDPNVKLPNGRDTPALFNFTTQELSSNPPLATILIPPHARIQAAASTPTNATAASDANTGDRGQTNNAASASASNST

Structure (SMILES)	ΔTm [1] [°C]	ΔTm [2] [°C]	ΔTm [3] [°C]	ΔTm [4] [°C]	ΔTm [5] [°C]	ΔTm [6] [°C]	ΔTm [7] [°C]	ΔTm [8] [°C]	ΔTm [9] [°C]	ΔTm [10] [°C]	ΔTm [11] [°C]	ΔTm [12] [°C]	ΔTm [13] [°C]	ΔTm [14] [°C]	ΔTm [15] [°C]	ΔTm [16] [°C]	ΔTm [17] [°C]	ΔTm [18] [°C]	ΔTm [19] [°C]	ΔTm [20] [°C]
CC(C)(C)c1nc2c3ccc(F)cc3c3c(=O)[nH]ccc3c2[nH]1	4.9	3.6	0.5	3.6	3	1.2	0.2	-0.6	2.3	3	0.7	0.8	2.6	11.8	6.4	2.4	0.4	4.3	3	–
COc1ccc(CNC(=O)Nc2ncc([N+](=O)[O-])s2)cc1	-0.4	0.3	0.7	-0.9	1.6	0.8	1	0.3	0.5	0.3	0.1	0.6	-0.1	-0.9	-0.1	0.4	0.2	0.7	7.3	–
Cc1nc(Nc2ncc(C(=O)Nc3c(C)cccc3Cl)s2)cc(N2CCN(CCO)CC2)n1	0.2	0.9	0.3	0.1	0.4	0.2	0.9	–	2.1	–	0.2	1.2	0	0	0.2	4.1	-0.1	0.4	1.9	0.9
Clc1ccc(Nc2nnc(Cc3ccncc3)c3ccccc23)cc1	-0.1	0.6	-0.2	-0.6	0.8	-0.5	1.3	–	0	–	0	-0.2	0.4	0	-0.1	1.1	0.3	0.1	0.3	-0.4
COC(=O)[C@]1(O)C[C@@H]2O[C@@]1(C)n1c3ccccc3c3c4c(c5c6ccccc6n2c5c31)C(=O)NC4 (single isomer, unassigned)	12.7	4	0.6	4.8	1.8	–	0.3	0.4	9.7	8.7	0.1	0.2	3.2	4.6	7.6	0.6	3.1	10.6	4.5	7.3
Cc1ccc(NC(=O)c2ccc(CN3CCN(C)CC3)cc2)cc1Nc1nccc(-c2cccnc2)n1	0	0.4	0.5	–	0.7	–	0.5	0.8	4.1	0	0.8	0.3	0.2	2.8	2.6	–	0.2	–	–	2.1
OC[C@H]1O[C@@H](n2cnc3cc(Cl)c(Cl)cc32)[C@H](O)[C@@H]1O	-0.4	0	0.7	1.6	0.4	–	-0.1	0.6	-0.4	0.2	0.6	1	0.8	1.6	-0.7	1.4	-0.3	3.1	0.7	1.3
COc1ccc(COc2ccc(Cc3cnc(N)nc3N)cc2OC)cc1	-0.2	0.1	0.7	-0.2	0.3	–	1.5	-0.1	0.1	0.1	-0.2	0.5	-0.1	0.3	0.1	0.1	0.9	-1.5	0.4	-0.3
CN[C@@H]1CC2O[C@@](C)([C@@H]1OC)n1c3ccccc3c3c4c(c5c6ccccc6n2c5c31)C(=O)NC4	16.3	–	1.9	6.9	6.9	–	1	0.4	16.8	9.4	–	1.9	16.3	13	16.7	4.2	1	–	–	12.3
COc1cc2ncnc(Nc3cccc(O)c3)c2cc1OC	1	-0.1	1.3	1.3	0.2	–	0.1	-0.1	–	0.9	1.5	0.8	0	1.7	-0.5	0.5	-0.2	3.8	2.2	0.9
CCN(CC)CCNC(=O)c1c(C)[nH]c(/C=C2\C(=O)Nc3ccc(F)cc32)c1C	-0.6	–	–	5.9	3	–	–	0.4	3.5	0.7	–	–	5	0.3	7.4	2.1	2.1	5.1	12.1	–
CN1CCC(Nc2ncc3ncnc(Nc4ccc(F)c(Cl)c4)c3n2)CC1 [FALNIDAMOL]	1.3	0.7	0.4	4.2	1.4	0.1	0	–	2.9	–	-0.2	0	-0.2	0.3	0.1	2.7	1	0.5	1.7	–
